Assay [1] addresses T1, human androgen receptor (hAR) (Homo sapiens, UniProt P10275).
T1 construct: expressed in transfected cells
T1 sequence (P10275 1-920): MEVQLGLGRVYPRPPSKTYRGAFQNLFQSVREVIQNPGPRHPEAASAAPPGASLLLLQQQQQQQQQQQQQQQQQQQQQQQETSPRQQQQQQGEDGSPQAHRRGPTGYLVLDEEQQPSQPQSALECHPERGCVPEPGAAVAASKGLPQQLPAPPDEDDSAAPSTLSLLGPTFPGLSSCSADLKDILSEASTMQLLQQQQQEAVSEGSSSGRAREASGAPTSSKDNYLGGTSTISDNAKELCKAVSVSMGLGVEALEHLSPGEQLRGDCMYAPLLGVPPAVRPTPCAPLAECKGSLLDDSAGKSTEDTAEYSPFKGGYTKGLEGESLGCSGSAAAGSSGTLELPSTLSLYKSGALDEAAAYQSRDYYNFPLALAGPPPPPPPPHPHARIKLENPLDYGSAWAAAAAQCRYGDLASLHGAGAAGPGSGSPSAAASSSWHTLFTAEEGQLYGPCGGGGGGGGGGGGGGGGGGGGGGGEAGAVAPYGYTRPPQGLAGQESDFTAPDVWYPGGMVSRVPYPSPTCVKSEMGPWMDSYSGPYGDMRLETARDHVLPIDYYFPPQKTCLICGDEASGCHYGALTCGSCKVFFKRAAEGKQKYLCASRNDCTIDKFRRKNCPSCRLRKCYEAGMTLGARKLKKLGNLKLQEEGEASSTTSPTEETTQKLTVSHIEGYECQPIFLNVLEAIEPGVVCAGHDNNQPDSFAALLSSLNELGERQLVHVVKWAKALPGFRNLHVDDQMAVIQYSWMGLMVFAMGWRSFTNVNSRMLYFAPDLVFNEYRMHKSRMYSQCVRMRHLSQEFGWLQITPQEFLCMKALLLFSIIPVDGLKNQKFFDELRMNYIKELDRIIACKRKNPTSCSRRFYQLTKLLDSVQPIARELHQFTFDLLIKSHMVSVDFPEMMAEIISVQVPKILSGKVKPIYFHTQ
Briefly: Functional response (transactivation) test in HALP2 cells (HeLa stably expressing hAR and ARE-luciferase reporter). Type of assay: cell-based. The note with it: for Emax: HeLa, read-out: % effect relative to DHT (100%). From the text:
This test constitutes a method of identifying pure or partial agonists which mimic the effects of natural hormones, such as DHT (dihydrotestosterone) in the present case or, on the other hand, antagonists which inhibit them.
For this transactivation test, plasmids encoding a reporter gene and the human androgen receptor (hAR) are introduced together by transfection into the HeLa cell line. The reporter plasmid contains luciferase cDNA under the control of the AREs contained in the promoter sequences of the probasin gene (3xpbAREminicoll-luciferase/pGL3-puro). The expression of the reporter gene constitutes an indication of the transcriptional activity of hAR. It also encodes a protein allowing the cells expressing it to resist a treatment with puromycin. The plasmid encoding hAR contains the cDNA of hAR under the control of the Cytomegalovirus (CMV) promoter. It also encodes a protein allowing the cells expressing it to resist a treatment with neomycin. The treatment of cells with increasing amounts of potentially agonistic compounds will increase the expression of the reporter gene. To detect antagonists, on the other hand, increasing doses of test compounds are tested in the presence of […] of DHT. The expression of the reporter gene, which is constant for each dose of DHT, decreases when the concentration of the test compounds increases.
The functional response test is conducted on 96-well plates. The HALP2 cells are seeded (20,000 cells per well) in culture medium (DMEM with phenol red, 1% de Pen-Strep, 1% of non-essential amino acids, 10% of fetal bovine serum, 400 μg/mL Geneticin and 0.150 puromycin) on day 1. After 24 hours incubating at 37° C., 5% CO2, high humidity (day 2) the medium is removed and refreshed with test medium (DMEM without phenol red supplemented, 1% de Pen-Strep, 1% of non-essential amino acids and 5% of desteroidised foetal bovine serum). After another 24 hours incubating at 37° C., 5% CO2, high humidity (day 3), the medium is renewed once more before the phase of stimulation.
The cells are placed in contact with the compounds for 24 hours at 37° C., 5% CO2, high humidity. On day 4 the medium is then removed and the luciferase activity reading reagent is placed in contact with the cells in accordance with the manufacturer's instructions (SteadyLite, Perkin-Elmer). The luminescence produced is detected on an Envision reader (Perkin-Elmer). […]
The determination of the relative agonism/antagonism of a compound is obtained by comparing the maximal activation obtained with said compound and the activation obtained with DHT alone (100%).

In assay [2] the test system is castrated immature young rats. Kind of assay: Adapted model of Hershberger's test. Type of assay: in vivo, Sprague Dawley rats. The note with it: Rattus norvegicus, po, 96 h, ORX control = 0%, SHAM control = 100%, per os daily for 4 days, dose tested 10 mg/kg. On the procedure: The selective modulating activity of the androgen receptor is tested in a model of castrated immature young rats. This model, which is widely recognised for evaluating the anabolic effects of androgen compounds on the muscles and on the prostate, has been described by Hershberger et al. 1953 Proc. Soc. Expt. Biol. Med. 83:175.
The method is based on the measurement of the well-known effects of androgens on the growth of the muscles and the accessory male sex organs in animals, and also in men. The consequences of castration appear in the form of a rapid involution and atrophy of the prostate and the seminal vesicles and of the anus-lifting muscle (levator ani). This effect may be completely compensated by an exogeneous administration of androgen, in particular of testosterone. The model is thus used to determine the capacity of the tested molecules to maintain the weight of the accessory sex and muscle organs in immature castrated rats, and therefore their androgenic efficacy.
Immature young Sprague Dawley rats (4 to 5 weeks old) weighing approximately 140-160 g (Charles River, Les Oncins, FRANCE) are distributed randomly in various groups and are kept in an environment at 22±2° C. with an alternating day/night cycle of 12 hours and ad libitum access to food and drink.
On day 0 (seven days before commencement of the first treatment) the rats are weighed individually then anaesthetised with an intraperitoneal dose of Ketamine/xylazine (85/15 mg/kg, approximately 2 ml/kg). Each animal is then placed on a sterile field and the abdomen and the scrotum are disinfected with Betadine and 70% alcohol. In the case of the orchidectomised control animals (ORX), the testicles are removed via an incision in the middle of the scrotum. A sterile suture is then made to ligature the supra-testicular portion of the tissue prior to surgical section of each testicle. The groups of animals to be treated by the tested compounds are operated on in an identical manner. In the case of the intact control animals (SHAM), the testicles are similarly extracted and reintroduced delicately to their original location. The site of surgical intervention is then sutured using sterile suture thread, and the site is disinfected again by application of Betadine. Each animal is then kept under a sterile pad until it awoke, before being returned to its cage. The animals are kept in an environment at 22±2° C. with an alternating day/night cycle of 12 hours and ad libitum access to food and drink. The animals are treated with the molecules to be tested from post-surgery day 7 and until day 10 preceding sacrifice (day 11).
The rats are split into groups and treated daily from day 7 to day 10 under the conditions defined below: • 1. SHAM control group: Vehicle (PEG400/DMSO/water; 79/1/20) administered per os. • 2. ORX control group: Vehicle (PEG400/DMSO/water; 79/1/20) administered per os. • 3. Treated ORX group: The tested compounds are administered individually per os in suspension in the vehicle described above, in a dose of 10 mg/kg.
After treatment for 4 successive days, the animals are decapitated using a guillotine. The levator ani and the ventral prostate are removed and weighed individually. For comparing inter-experimental data, the weight of each organ is standardised and expressed in milligrammes per 100 g of the weight of the animal (W). For each organ, the average of the standardised weights of the ORX control group is fixed by definition at 0% and the average of the standardised weights of the SHAM control group is fixed by definition at 100%. The efficacy of each product is expressed as a percentage and calculated using the following formula: (Wtreated−WORX)/(WSHAM−WORX)×100
A subsequent ANOVA test is used for statistical analysis to identify the differences between groups.

The mark [3] stands for this setting: maximal activation by the compound compared with DHT alone (100%), HALP2 cells.
The mark [4] stands for this setting: agonism: concentration inducing 50% of the maximum agonistic effect of the tested compound, HALP2 cells, 24 hours, read-out: EC50.
Setting [5] is: levator ani weight, read-out: Anabolic activity %.
Where [6] appears, read: ventral prostate weight, read-out: Androgenic activity % (Prostate).

Structures are written as SMILES. Where two headings read alike, the source gives them in different places.

In the case of `N#CCN1C(=O)N(c2ccc(C#N)c(C(F)(F)F)c2)C(=O)C1(CO)c1ccccc1` (stereo not shown) [Example 18, 4-[3-Cyanomethyl-2,5-dioxo-4-(hydroxymethyl)-4-phenylimidazolidin-1-yl]-2-trifluoromethylbenzonitrile], in assay [1] (setting [3]), the Emax was in the range of 6 to 20%. The EC50 in assay [1] (setting [4]) was in the range of 501 to 1000 nM. Also, the results for the response vs control in vivo at 10 mg/kg in assay [2] (setting [5]) and in assay [2] (setting [6]) were 75 to 100% and 0.5 to 25%, respectively.
Consider `CC(C)[C@H](N)C(=O)OCC1(c2ccccc2)C(=O)N(c2ccc(C#N)c(C(F)(F)F)c2)C(=O)N1C` (stereo partly drawn) [Example 25, (2S)-1-[1-(4-Cyano-3-trifluoromethylphenyl)-2,5-dioxo-3-methyl-4-phenylimidazolidin-4-yl]methoxy-3-methyl-1-oxobutan-2-aminium chloride], for which, in assay [1], the EC50 was in the range of 11 to 100 nM and the Emax fell in the range of 21 to 40%.
As for `CN1C(=O)N(c2ccc(C#N)c(C(F)(F)F)c2)C(=O)C1(COC(=O)CCC(=O)O)c1ccccc1` (stereo not shown) [Example 26, 4-[1-(4-Cyano-3-trifluoromethylphenyl)-2,5-dioxo-3-methyl-4-phenylimidazolidin-4-yl]methoxy-4-oxobutanoic acid], in assay [1], the concentration giving a half-maximal response (EC50) lay within 11 to 100 nM and the Emax was in the range of 21 to 40%.
As for `CN1C(=O)N(c2ccc(C#N)c(C(F)(F)F)c2)C(=O)C1(CO)c1ccc(C#N)cc1` (stereo not shown) [Example 13, 4-[4-(4-Cyanophenyl)-2,5-dioxo-4-hydroxymethyl-3-methylimidazolidin-1-yl)-2-trifluoromethylbenzonitrile], the Emax in assay [1] (setting [3]) is 0 to 5%. The response vs control in vivo at 10 mg/kg in assay [2] (setting [5]) and in assay [2] (setting [6]) was 0.5 to 25% throughout.
As for `CC(C)N1C(=O)N(c2ccc(C#N)c(C(F)(F)F)c2)C(=O)C1(CO)c1ccccc1` (stereo not shown) [Example 17, 4-[2,5-Dioxo-4-(hydroxymethyl)-3-(1-methylethyl)-4-phenylimidazolidin-1-yl]-2-trifluoromethylbenzonitrile], the Emax in assay [1] (setting [3]) fell in the range of 41 to 50%. Further, the EC50 in assay [1] (setting [4]) is 101 to 500 nM. The response vs control in vivo at 10 mg/kg in assay [2] (setting [5]) was in the range of 75 to 100%; in assay [2] (setting [6]) it was 50 to 75%.
For the molecule `CN1C(=O)N(c2ccc(C#N)c(C(F)(F)F)c2)C(=O)C1(CO)c1cccc(C#N)c1` (stereo not shown) [Example 14, 4-[4-(3-Cyanophenyl)-2,5-dioxo-4-hydroxymethyl-3-methylimidazolidin-1-yl)-2-trifluoromethylbenzonitrile], in assay [1] (setting [3]), the Emax lay within 21 to 40%. Besides, the EC50 in assay [1] (setting [4]) is 101 to 500 nM. Moreover, the response vs control in vivo at 10 mg/kg in assay [2] (setting [5]) lay in the range of 75 to 100%; in assay [2] (setting [6]), 25 to 50%.
In the case of `CN1C(=O)N(c2ccc(C#N)c(C(F)(F)F)c2)C(=O)C1(CO)c1cccc(Cl)c1` (stereo not shown) [Example 9], in assay [1] (setting [3]), the Emax fell in the range of 41 to 50%. In assay [1] (setting [4]), the concentration for a half-maximal effect (EC50) lay in the range of 0.01 to 10 nM. Besides, the results for the response vs control in vivo at 10 mg/kg in assay [2] (setting [5]) and in assay [2] (setting [6]) were 50 to 75% and 0.5 to 25%, respectively.
With `CN1C(=O)N(c2ccc(C#N)c(C(F)(F)F)c2)C(=O)C1(CO)c1cccc(C(F)(F)F)c1` (stereo not shown) [Example 15, 4-[2,5-Dioxo-4-hydroxymethyl-3-methyl-4-(3-trifluoromethylphenyl)imidazolidin-1-yl)-2-trifluoromethylbenzonitrile], the Emax in assay [1] (setting [3]) fell in the range of 21 to 40%. Moreover, the EC50 in assay [1] (setting [4]) was 101 to 500 nM. The figures for the response vs control in vivo at 10 mg/kg in assay [2] (setting [5]) and in assay [2] (setting [6]) were 25 to 50% and 0%, respectively.
For the molecule `CN1C(=O)N(c2ccc(C#N)c(C(F)(F)F)c2)C(=O)C1(COP(=O)(O)O)c1ccccc1` (stereo not shown) [Example 24, [1-(4-Cyano-3-trifluoromethylphenyl)-2,5-dioxo-3-methyl-4-phenylimidazolidin-4-yl]methyl dihydrogen phosphate], the Emax in assay [1] (setting [3]) is 21 to 40%. Also, in assay [1] (setting [4]), the EC50 lay in the range of 0.01 to 10 nM.
For the molecule `N#Cc1ccc(N2C(=O)NC(CO)(c3ccccc3)C2=O)cc1C(F)(F)F` (stereo not shown) [Example 20, 4-[2,5-Dioxo-4-hydroxymethyl-4-phenylimidazolidin-1-yl]-2-trifluoromethylbenzonitrile], the “% effect relative to DHT (100%)” value in assay [1] (setting [3]) is recorded as “§ (0-5%)”.
Consider `CCC(O)C1(c2ccccc2)C(=O)N(c2ccc(C#N)c(C(F)(F)F)c2)C(=O)N1C` (single isomer, unassigned) [Example 2, 4-[2,5-Dioxo-4-(1-hydroxypropyl)-3-methyl-4-phenylimidazolidin-1-yl]-2-trifluoromethylbenzonitrile], for which the Emax in assay [1] (setting [3]) was 0 to 5%.

These data come from patent US8383608B2, “Imidazolidine compounds as androgen receptor modulators” (Dart Therapeutics LLC, priority 2008, dated 2013).
